The values that follow come from ChEMBL document CHEMBL4177698, “Discovery and in vivo effects of novel human natriuretic peptide receptor A (NPR-A) agonists with improved activity for rat NPR-A” (Bioorg Med Chem, 2017).

Activity calls are given as the source filed them. The calls are words filed in the database; no cut-off is given here.

Test [1] addresses T1, Atrial natriuretic peptide receptor 1 (Homo sapiens, UniProt P16066).
T1 sequence (P16066 whole entry): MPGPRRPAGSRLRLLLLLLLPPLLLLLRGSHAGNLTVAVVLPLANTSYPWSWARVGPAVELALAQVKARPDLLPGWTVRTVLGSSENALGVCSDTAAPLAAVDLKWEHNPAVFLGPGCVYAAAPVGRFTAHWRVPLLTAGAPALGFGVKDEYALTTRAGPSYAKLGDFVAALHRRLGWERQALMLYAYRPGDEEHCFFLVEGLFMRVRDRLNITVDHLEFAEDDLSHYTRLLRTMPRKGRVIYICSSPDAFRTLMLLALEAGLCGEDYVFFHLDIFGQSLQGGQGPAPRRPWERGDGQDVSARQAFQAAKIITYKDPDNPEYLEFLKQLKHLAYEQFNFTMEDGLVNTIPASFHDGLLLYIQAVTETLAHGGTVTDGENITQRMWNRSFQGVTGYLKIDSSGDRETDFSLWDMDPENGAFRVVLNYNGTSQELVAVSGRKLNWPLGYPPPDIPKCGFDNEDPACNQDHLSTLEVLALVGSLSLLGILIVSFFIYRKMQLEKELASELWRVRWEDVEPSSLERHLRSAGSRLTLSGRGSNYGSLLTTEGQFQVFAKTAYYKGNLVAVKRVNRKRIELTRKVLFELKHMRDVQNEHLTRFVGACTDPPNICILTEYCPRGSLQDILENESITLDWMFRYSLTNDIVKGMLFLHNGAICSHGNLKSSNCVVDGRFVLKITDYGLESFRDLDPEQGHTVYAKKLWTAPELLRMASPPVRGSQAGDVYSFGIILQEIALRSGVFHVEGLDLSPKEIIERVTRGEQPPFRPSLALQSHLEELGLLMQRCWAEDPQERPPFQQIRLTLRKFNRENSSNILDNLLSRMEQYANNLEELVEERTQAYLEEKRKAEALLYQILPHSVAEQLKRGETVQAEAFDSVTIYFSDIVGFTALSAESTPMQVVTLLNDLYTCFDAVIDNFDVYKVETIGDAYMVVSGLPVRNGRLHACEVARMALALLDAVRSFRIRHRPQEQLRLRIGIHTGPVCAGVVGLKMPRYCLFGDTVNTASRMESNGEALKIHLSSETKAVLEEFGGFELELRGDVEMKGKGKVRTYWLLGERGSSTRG
The experiment in a line: Agonist activity at human NPR-A expressed in CHO cells assessed as increase in cGMP accumulation after 30 mins by radioimmunoassay. Type of test: cell-based.

Test [2] deals with T2, Atrial natriuretic peptide receptor 1 (Rattus norvegicus, UniProt P18910).
T2 sequence (P18910 whole entry): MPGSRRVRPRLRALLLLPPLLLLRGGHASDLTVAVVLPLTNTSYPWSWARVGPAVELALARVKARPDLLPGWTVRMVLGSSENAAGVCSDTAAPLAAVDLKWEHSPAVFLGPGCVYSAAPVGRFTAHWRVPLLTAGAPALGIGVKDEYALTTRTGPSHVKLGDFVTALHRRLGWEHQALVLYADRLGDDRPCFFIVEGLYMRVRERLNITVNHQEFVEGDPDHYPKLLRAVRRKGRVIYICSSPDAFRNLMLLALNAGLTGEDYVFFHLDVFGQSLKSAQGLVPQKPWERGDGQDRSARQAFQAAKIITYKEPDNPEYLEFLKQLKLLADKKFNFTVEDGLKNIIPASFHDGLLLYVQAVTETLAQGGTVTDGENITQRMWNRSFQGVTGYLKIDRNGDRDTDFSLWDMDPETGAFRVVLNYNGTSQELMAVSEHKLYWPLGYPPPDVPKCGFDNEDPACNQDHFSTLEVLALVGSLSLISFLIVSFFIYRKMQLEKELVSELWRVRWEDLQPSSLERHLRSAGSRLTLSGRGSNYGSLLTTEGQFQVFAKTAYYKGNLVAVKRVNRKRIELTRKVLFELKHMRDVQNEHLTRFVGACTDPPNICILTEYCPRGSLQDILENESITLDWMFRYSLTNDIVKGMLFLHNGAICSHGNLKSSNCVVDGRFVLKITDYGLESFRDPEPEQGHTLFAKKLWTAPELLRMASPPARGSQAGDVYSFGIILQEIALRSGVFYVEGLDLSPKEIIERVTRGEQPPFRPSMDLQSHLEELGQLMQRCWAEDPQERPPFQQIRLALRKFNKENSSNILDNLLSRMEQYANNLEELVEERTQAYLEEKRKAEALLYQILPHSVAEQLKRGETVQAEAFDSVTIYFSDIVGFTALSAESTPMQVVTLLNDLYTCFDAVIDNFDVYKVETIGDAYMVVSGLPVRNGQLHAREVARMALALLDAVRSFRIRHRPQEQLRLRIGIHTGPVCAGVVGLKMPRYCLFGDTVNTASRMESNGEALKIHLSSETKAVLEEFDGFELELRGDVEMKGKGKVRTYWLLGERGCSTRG
The experiment in a line: Agonist activity at rat NPR-A expressed in CHO cells assessed as increase in cGMP accumulation after 15 mins by fluorescent assay. The class given is cell-based.

Test [3] has as its system Rattus norvegicus. The experiment in a line: In vivo agonist activity at NPR-A in Crl:CD(SD) rat assessed as increase in cGMP accumulation in plasma at 1 mg/kg/min, iv administered via infusion for 15 mins measured after 30 mins by radioimmunoassay. The class given is functional, organism-based.
Test [4] deals with Rattus norvegicus. The experiment in a line: Diuretic activity in Crl:CD(SD) rat assessed as increase in urine volume at 1 mg/kg/min, iv administered as infusion over 30 mins measured after 20 mins post dose. The class given is functional, organism-based.
Test [5] has as its system Rattus norvegicus. The test can be described thus: Diuretic activity in Crl:CD(SD) rat assessed as increase in urine volume at 1 mg/kg/min, iv administered as infusion over 30 mins measured after 40 mins post dose. Type of test: functional, organism-based.
The subject of test [6] is Rattus norvegicus. The experiment in a line: In vivo agonist activity at NPR-A in Crl:CD(SD) rat assessed as increase in cGMP accumulation in lungs at 1 mg/kg/min. Type of test: functional, organism-based.
Test [7] relates to Rattus norvegicus. The experiment in a line: In vivo agonist activity at NPR-A in Crl:CD(SD) rat assessed as increase in cGMP accumulation in heart at 1 mg/kg/min. The class given is functional, organism-based.

In general, EC50 refers to the midpoint of the concentration-response curve. Regarding `CC(C)NC(=O)N[C@H]1CC[C@H](Nc2nc(N[C@H](C)CO)nc3ccc(-c4cccc(F)c4)cc23)CC1`, the results for the EC50 in test [1] and in test [2] were 0.46 µM and 0.53 µM, respectively.
On to `C[C@H](CO)Nc1nc(N[C@H]2CC[C@@H](NC(=O)NC3CC3)CC2)c2cc(-c3cccc(F)c3)ccc2n1`, for which the concentration for a half-maximal effect (EC50) in test [1] turned out to be 0.33 µM; in test [2], 0.18 µM.
The like results for `CC(C)NC(=O)N[C@H]1CC[C@@H](Nc2nc(N(C)CCO)nc3ccc(-c4cccc(F)c4)cc23)CC1` were, in that order, 0.72 µM and 2.1 µM.
In the case of `C[C@H](CO)Nc1nc(N[C@H]2CC[C@H](NC(=O)[C@H]3C[C@H](O)C3)CC2)c2cc(-c3cccc(F)c3)ccc2n1`, the EC50 in test [1] came to 0.47 µM; in test [2], 0.7 µM.
As for `C[C@H](CO)Nc1nc(N[C@H]2CC[C@@H](NC(=O)NC3(CO)CCCC3)CC2)c2cc(-c3cccc(F)c3)ccc2n1`, the concentration for a half-maximal effect (EC50) in test [1] is 0.078 µM; in test [2], 0.12 µM.
Regarding `COC[C@@H](C)Nc1nc(N[C@H]2CC[C@@H](NC(=O)NC(C)C)CC2)c2cc(-c3cccc(F)c3)ccc2n1`, the EC50 in test [1] is 0.2 µM; in test [2] it was 0.16 µM.
For `COCCNc1nc(N[C@H]2CC[C@@H](NC(=O)NC(C)C)CC2)c2cc(-c3cccc(F)c3)ccc2n1`, the EC50 turned out to be 0.38 µM in test [1] and 0.61 µM in test [2].
The like results for `CC(C)Nc1nc(N[C@H]2CC[C@@H](NC(=O)N(C)C(C)C)CC2)c2cc(-c3cccc(F)c3)ccc2n1` were, in that order, 4 µM and 3 µM.
Regarding `CC(C)NC(=O)N[C@H]1CC[C@@H](Nc2nc(NC(C)C)nc3ccc(-c4cccc(F)c4)cc23)CC1`, the values for the EC50 in test [1] and in test [2] were 1.5 µM and 0.42 µM, respectively.
On to `C[C@H](CO)Nc1nc(N[C@H]2CC[C@@H](NC(=O)NC(C)(C)CO)CC2)c2cc(-c3cccc(F)c3)ccc2n1`, for which the result in test [3] was Active. The half-maximal effective concentration (EC50) in test [1] is 0.22 µM; in test [2], 0.066 µM.
In the case of `COC[C@@H](C)Nc1nc(N[C@H]2CC[C@@H](NC(=O)NC(C)C)CC2)c2nc(-c3cccc(F)c3)ccc2n1`, the EC50 in test [1] is 4 µM; in test [2], 1.6 µM.
The like results for `C[C@H](CO)Nc1nc(N[C@H]2CC[C@@H](NC(=O)NC3CCCN(C)C3)CC2)c2cc(-c3cccc(F)c3)ccc2n1` (stereo partly specified) were, in that order, 0.78 µM and 3.2 µM.
In the case of `COC[C@@H](C)Nc1nc(N[C@H]2CC[C@@H](NC(=O)NC3CC3)CC2)c2cc(-c3cccc(F)c3)ccc2n1`, the EC50 in test [1] worked out at 0.34 µM; in test [2], 0.27 µM.
On to `CC(C)Nc1nc(N[C@H]2CC[C@@H](NC(=O)N[C@@H](CO)C(C)C)CC2)c2cc(-c3cccc(F)c3)ccc2n1`, for which the EC50 is 1 µM in test [1] and 0.29 µM in test [2].
Turning to `CC(C)[C@@H](CO)NC(=O)N[C@H]1CC[C@@H](Nc2nc(N[C@H](C)CO)nc3ccc(-c4cccc(F)c4)cc23)CC1`, the concentration giving a half-maximal response (EC50) in test [1] amounted to 0.041 µM; in test [2], 0.33 µM.
For `C[C@H](CO)Nc1nc(N[C@H]2CC[C@H](NC(=O)[C@H]3C[C@H](O)C3)CC2)c2cc(-c3ccccc3)ccc2n1`, the half-maximal effective concentration (EC50) turned out to be 0.9 µM in test [1] and 1.8 µM in test [2].
With `C[C@H](CO)Nc1nc(N[C@H]2CC[C@H](NC(=O)N3CC(O)C3)CC2)c2cc(-c3cccc(F)c3)ccc2n1`, the values for the EC50 in test [1] and in test [2] were 0.42 µM and 0.9 µM, respectively.
For `CC(C)N[C@H]1C[C@H](C(=O)N[C@H]2CC[C@H](Nc3nc(N[C@H](C)CO)nc4ccc(-c5ccccc5)cc34)CC2)C1`, the 50% effective concentration (EC50) in test [1] came out at 0.32 µM; in test [2], 2 µM.
For `COC[C@H](C)Nc1nc(N[C@H]2CC[C@@H](NC(=O)NC3CC3)CC2)c2cc(-c3cccc(F)c3)ccc2n1`, the results for the 50% effective concentration (EC50) in test [1] and in test [2] were 0.85 µM and 1.8 µM, respectively.
Take `CC(C)[C@H](CO)NC(=O)N[C@H]1CC[C@@H](Nc2nc(N[C@H](C)CO)nc3ccc(-c4cccc(F)c4)cc23)CC1`: the result in test [3] was Active. In addition, the EC50 in test [1] was determined as 0.071 µM; in test [2], 0.065 µM.
On to `CC(C)Nc1nc(N[C@H]2CC[C@@H](NC(=O)N[C@@H](CO)C(C)C)CC2)c2cc(-c3cccc(F)c3)cnc2n1`, for which the outcome in test [3] was Active. The concentration for a half-maximal effect (EC50) in test [1] amounted to 0.098 µM; in test [2] it was 0.043 µM.
Take `CC(C)NC(=O)N[C@H]1CC[C@@H](Nc2nc(N[C@H](C)CO)nc3ccc(-c4cccc(F)c4)cc23)CC1`: the EC50 came out at 0.32 µM in test [1] and 0.074 µM in test [2].
Take `CC(C)[C@H](CO)NC(=O)N[C@H]1CC[C@@H](Nc2nc(N[C@H](C)CO)nc3ncc(-c4cccc(F)c4)cc23)CC1`: the result in test [4], in test [5], in test [3], in test [6] and in test [7] was Active. The EC50 came out at 0.11 µM in test [1] and 0.062 µM in test [2].
For `CC(C)[C@H](CO)NC(=O)N[C@H]1CC[C@@H](Nc2nc(N[C@H](C)CO)nc3cnc(-c4cccc(F)c4)cc23)CC1`, the EC50 amounted to 0.62 µM in test [1] and 0.13 µM in test [2].
